Reference: PMC3025057 (Experimental parasitology, 2010)

Molecular target: Trypanosoma brucei hexokinase 1 (TbHK1) (Trypanosoma brucei, UniProt Q38C42)
Test: G6PDH-coupled hexokinase assay with recombinant enzyme
Assay type: biochemical

Compound: O=c1c(O)c(-c2ccc(O)c(O)c2)oc2cc(O)cc(O)c12 [QCN, 3,3′,4′,5,7-pentahydroxyflavone]
- Ki: 2900 ± 900 nM
